Molecules are shown by their SMILES. pIC50: −log10 of the molar value.

In experiment [1] the target is T1, purified HDAC6 (Homo sapiens, UniProt Q9UBN7).
T1 construct: purchased Cayman Chemical
T1 sequence (Q9UBN7 1-1215): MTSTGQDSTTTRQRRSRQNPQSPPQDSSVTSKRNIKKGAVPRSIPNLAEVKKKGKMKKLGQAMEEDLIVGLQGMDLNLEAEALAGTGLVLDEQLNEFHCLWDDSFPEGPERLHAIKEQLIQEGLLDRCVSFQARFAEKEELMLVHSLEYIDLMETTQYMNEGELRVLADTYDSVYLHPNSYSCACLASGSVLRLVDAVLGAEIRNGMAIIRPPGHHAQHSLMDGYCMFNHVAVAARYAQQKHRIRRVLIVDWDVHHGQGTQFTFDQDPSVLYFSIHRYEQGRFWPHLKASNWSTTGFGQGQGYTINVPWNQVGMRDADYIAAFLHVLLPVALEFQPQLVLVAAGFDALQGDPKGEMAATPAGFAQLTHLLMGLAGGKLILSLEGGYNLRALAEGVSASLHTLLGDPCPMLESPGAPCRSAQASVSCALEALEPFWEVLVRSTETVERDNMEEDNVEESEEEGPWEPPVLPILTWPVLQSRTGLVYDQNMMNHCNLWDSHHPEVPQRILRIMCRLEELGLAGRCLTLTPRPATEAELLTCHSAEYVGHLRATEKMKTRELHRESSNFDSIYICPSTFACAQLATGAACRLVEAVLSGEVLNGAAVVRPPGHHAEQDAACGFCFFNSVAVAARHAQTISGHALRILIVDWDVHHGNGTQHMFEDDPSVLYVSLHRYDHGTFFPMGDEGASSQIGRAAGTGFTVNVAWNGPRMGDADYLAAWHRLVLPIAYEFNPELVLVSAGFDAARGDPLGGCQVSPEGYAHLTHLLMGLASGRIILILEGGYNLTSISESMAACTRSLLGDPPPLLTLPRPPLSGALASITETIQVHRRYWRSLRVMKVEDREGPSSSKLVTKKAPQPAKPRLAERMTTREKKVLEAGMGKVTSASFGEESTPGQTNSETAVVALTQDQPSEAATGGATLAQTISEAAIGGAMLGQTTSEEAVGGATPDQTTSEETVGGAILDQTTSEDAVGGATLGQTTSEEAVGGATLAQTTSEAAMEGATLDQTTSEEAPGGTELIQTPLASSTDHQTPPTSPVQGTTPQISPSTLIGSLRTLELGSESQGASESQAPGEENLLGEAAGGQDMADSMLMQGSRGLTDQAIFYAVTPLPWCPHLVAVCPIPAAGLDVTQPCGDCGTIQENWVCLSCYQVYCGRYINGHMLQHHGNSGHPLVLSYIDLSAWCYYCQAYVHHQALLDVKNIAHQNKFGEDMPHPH
Put plainly: Fluorogenic HDAC inhibition assay, HDAC6. It is filed as biochemical. The conditions noted are these: purified HDAC6, fluorometric substrate. How it is done: (§1) The hybrids were assessed to determine their HDACi and VDR agonist activity as well as their antiproliferative properties relative to DK-406. HDACi activity was assessed in vitro using an acetylated lysine substrate that releases a fluorescent reporter upon HDACi deacetylation and subsequent trypsin digestion. Increasing sidechain length of pyrimidine hybrids enhanced the potency of HDAC6 inhibition, with several compounds inhibiting HDAC6 with a sub-micromolar IC50, similar to that of DK-406 (Fig. 4a). […] Next, we analyzed the effects of compounds on levels of H3K9 and H3K27 acetylation in 4TO7 cells, which are controlled by class I HDACs[29],[30]. […] We also tested the capacity of analogues to induce tubulin acetylation, controlled by class II enzyme HDAC6[32], in 4TO7 cells. Based on their relative efficacy in cytotoxicity assays (see below, Fig. 5c,d), we used 10^–5 M DK-406 and 10^–6 M AM-193 for these studies.
(§2) Figure 4 (a) Results of in vitro assays for inhibition of purified HDAC2 and HDAC6 by DK-406 and heterocyclic hybrids as measured by inhibition of deacetylation of a fluorometric substrate (see Methods for details). (b–d) Left: Western blotting analysis of histone 3 lysine 9 (H3K9; b), H3K27 (c), or acetylated tubulin (d), levels in 4TO7 cells treated with ligands for 6 h. Representative western-blots are shown from at least 3 biological replicates. Right: Graphs representing the average of the replicates, bars are mean ± SD. Each condition was compared to control. *: p ≤ 0.05, **: p ≤ 0.01, ***: p ≤ 0.001, ****: p ≤ 0.0001, ns: not significant. TEXT PRINTED IN THE PICTURE: (a) DK-406: HDAC6 IC50 (μM): 0.6; HDAC2 IC50 (μM): 0.5 | (a) AM-155: HDAC6 IC50 (μM): 2.8; HDAC2 IC50 (μM): 1.7 | (a) AM-171: HDAC6 IC50 (μM): 0.5; HDAC2 IC50 (μM): 9.6 | (a) AM-172: HDAC6 IC50 (μM): 0.3; HDAC2 IC50 (μM): 7.7 | (a) AM-191: HDAC6 IC50 (μM): 1.9; HDAC2 IC50 (μM): 8.1 | (a) AM-192: HDAC6 IC50 (μM): 0.5; HDAC2 IC50 (μM): 6.5 | (a) AM-193: HDAC6 IC50 (μM): 0.3; HDAC2 IC50 (μM): 7.2
(§3) Purified HDAC2 and HDAC6 were purchased from Cayman Chemical. Boc-Lys(Ac)-7-amino-4-methylcoumarin (BocLys(Ac)-AMC) was used as substrate for the HDAC assays. Substrate solution was prepared as follow: Boc(Lys-Ac)-AMC was dissolved in DMSO and diluted with HDAC buffer (15 mM tris–HCl [pH 8.1], 250 μM EDTA, 250 mM NaCl, 10% glycerol) to give 1 mM solutions containing 1.7% DMSO. Trypsin was used to stop the reaction, releasing free AMC. The trypsin solution was prepared as follow: trypsin was dissolved in HDAC buffer to give a concentration of 10 mg/mL. Release of AMC was monitored by measuring the fluorescence at 460 nm (lex = 390 nm) with a microplate reader (SpectraMax Gemini from Molecular Devices) at 37 °C. The AMC signals were recorded against a blank with buffer, substrate and trypsin but without the enzyme. All experiments were carried out at least in triplicate.
(§4) For HDAC inhibition assays, inhibitor diluted in 50 μL of HDAC buffer was mixed with 10 μL of diluted enzyme solution in HDAC buffer at room temperature. The HDAC reaction was started by adding 40 μL of substrate solution in HDAC buffer followed by 60 min of incubation with stirring at 37 °C. The reaction was stopped by adding 100 μL of trypsin solution. After a 30 min incubation with stirring at 37 °C, the release of AMC was monitored by measuring the fluorescence.

Experiment [2] concerns the target T2, purified HDAC2 (Homo sapiens, UniProt Q92769).
T2 construct: purchased Cayman Chemical
Put plainly: Fluorogenic HDAC inhibition assay, HDAC2. It is filed as biochemical. The conditions noted are these: purified HDAC2, fluorometric substrate. How it is done:
as §1, §2, §3, §4

T2 sequence (Q92769 whole entry): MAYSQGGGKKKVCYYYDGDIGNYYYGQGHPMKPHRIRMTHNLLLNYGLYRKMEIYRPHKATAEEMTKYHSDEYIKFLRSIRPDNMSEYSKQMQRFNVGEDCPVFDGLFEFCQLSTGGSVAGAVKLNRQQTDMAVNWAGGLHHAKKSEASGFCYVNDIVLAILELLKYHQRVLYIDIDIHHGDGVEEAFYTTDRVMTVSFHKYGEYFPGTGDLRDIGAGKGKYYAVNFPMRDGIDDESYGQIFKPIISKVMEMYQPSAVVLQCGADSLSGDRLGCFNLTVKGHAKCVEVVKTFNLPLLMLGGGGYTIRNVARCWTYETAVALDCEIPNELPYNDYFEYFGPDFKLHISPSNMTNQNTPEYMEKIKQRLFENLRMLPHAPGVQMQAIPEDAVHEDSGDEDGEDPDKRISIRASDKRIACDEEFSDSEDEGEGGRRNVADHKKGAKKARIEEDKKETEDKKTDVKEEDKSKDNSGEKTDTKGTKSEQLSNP

Usually pIC50 stands for −log10 of the IC50, conventionally taken in molar units. Higher therefore signals a small IC50. Turning to `CCC(CC)(c1ccc(OCC(O)C(C)(C)C)c(C)c1)c1ccc(OCC(=O)NO)cn1` (centres unmarked) [AM-155], the pIC50 in experiment [1] is 5.55; in experiment [2], 5.77.

On to `CCC(CC)(c1ccc(C(=O)NCCCCCC(=O)NO)cc1)c1ccc(OCC(O)C(C)(C)C)c(C)c1` (centres unmarked) [DK-406], for which the pIC50 in experiment [1] is 6.22; in experiment [2], 6.30.

Consider `CCC(CC)(c1ccc(OCCCCCC(=O)NO)cc1)c1ccc(OCC(O)C(C)(C)C)c(C)n1` (centres unmarked) [AM-193], for which the pIC50 in experiment [1] is 6.52; in experiment [2], 5.14.

`CCC(CC)(c1ccc(OCC(O)C(C)(C)C)c(C)c1)c1ccc(OCCCC(=O)NO)cn1` (centres unmarked) [AM-171]: the negative-log IC50 (pIC50) in experiment [1] is 6.30; in experiment [2], 5.02.

The values are drawn from PMC9038752, “Molecular mechanisms of bifunctional vitamin D receptor agonist-histone deacetylase inhibitor hybrid molecules in triple-negative breast cancer” (Scientific Reports, 2022).
